# Data taken from PubChem BioAssay (NCI).
#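 A five-concentration, 48-hour dose response in 96-well plates underlies each endpoint, interpolated linearly between surrounding concentrations. GI50 marks 50% less growth. TGI is the concentration that stops growth completely.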
# What was measured:
# Assay in all cases: NCI tumour cell line growth inhibition, 48 h
# 786-0 renal = tested on: 786-0 renal
# A498 renal = tested on: A498 renal
# A549 NSCLC = tested on: A549 NSCLC
# ACHN renal = tested on: ACHN renal
# BT-549 breast = tested on: BT-549 breast
# CCRF-CEM leukemia = tested on: CCRF-CEM leukemia
# COLO 205 colon = tested on: COLO 205 colon
# DU-145 prostate = tested on: DU-145 prostate
# HCC-2998 colon = tested on: HCC-2998 colon
# HCT-116 colon = tested on: HCT-116 colon
# HCT-15 colon = tested on: HCT-15 colon
# HL-60(TB) leukemia = tested on: HL-60(TB) leukemia
# HOP-62 NSCLC = tested on: HOP-62 NSCLC
# HOP-92 NSCLC = tested on: HOP-92 NSCLC
# HS 578T breast = tested on: HS 578T breast
# HT29 colon = tested on: HT29 colon
# IGROV1 ovarian = tested on: IGROV1 ovarian
# K-562 leukemia = tested on: K-562 leukemia
# KM12 colon = tested on: KM12 colon
# LOX IMVI melanoma = tested on: LOX IMVI melanoma
# M14 melanoma = tested on: M14 melanoma
# MALME-3M melanoma = tested on: MALME-3M melanoma
# MCF7 breast = tested on: MCF7 breast
# MDA-MB-231 breast = tested on: MDA-MB-231 breast
# MDA-MB-435 = tested on: MDA-MB-435
# MOLT-4 leukemia = tested on: MOLT-4 leukemia
# NCI-H226 lung = tested on: NCI-H226 lung
# NCI-H23 lung = tested on: NCI-H23 lung
# NCI-H460 lung = tested on: NCI-H460 lung
# NCI-H522 lung = tested on: NCI-H522 lung
# NCI/ADR-RES ovarian = tested on: NCI/ADR-RES ovarian
# OVCAR-3 ovarian = tested on: OVCAR-3 ovarian
# OVCAR-4 ovarian = tested on: OVCAR-4 ovarian
# OVCAR-5 ovarian = tested on: OVCAR-5 ovarian
# OVCAR-8 ovarian = tested on: OVCAR-8 ovarian
# PC-3 prostate = tested on: PC-3 prostate
# RPMI-8226 leukemia = tested on: RPMI-8226 leukemia
# RXF 393 renal = tested on: RXF 393 renal
# SF-268 CNS = tested on: SF-268 CNS
# SF-295 CNS = tested on: SF-295 CNS
# SF-539 CNS = tested on: SF-539 CNS
# SK-MEL-2 melanoma = tested on: SK-MEL-2 melanoma
# SK-MEL-28 melanoma = tested on: SK-MEL-28 melanoma
# SK-MEL-5 melanoma = tested on: SK-MEL-5 melanoma
# SK-OV-3 ovarian = tested on: SK-OV-3 ovarian
# SN12C renal = tested on: SN12C renal
# SNB-19 CNS = tested on: SNB-19 CNS
# SNB-75 CNS = tested on: SNB-75 CNS
# SR leukemia = tested on: SR leukemia
# SW-620 colon = tested on: SW-620 colon
# T-47D breast = tested on: T-47D breast
# TK-10 renal = tested on: TK-10 renal
# U251 CNS = tested on: U251 CNS
# UACC-257 melanoma = tested on: UACC-257 melanoma
# UACC-62 melanoma = tested on: UACC-62 melanoma
# UO-31 renal = tested on: UO-31 renal
smiles,measurement,setting,value
CC(C)CNC(=O)c1ccc(NC(=O)N(CC(C)C)C(=O)c2ccc(N)c(OCCCN)c2)c(OCCCN=C(N)N)c1,GI50,786-0 renal,> 62.5 µM
same,TGI,786-0 renal,> 62.5 µM
same,GI50,A498 renal,> 62.5 µM
same,TGI,A498 renal,> 62.5 µM
same,GI50,A549 NSCLC,> 62.5 µM
same,TGI,A549 NSCLC,> 62.5 µM
same,GI50,ACHN renal,> 62.5 µM
same,TGI,ACHN renal,> 62.5 µM
same,GI50,BT-549 breast,> 62.5 µM
same,TGI,BT-549 breast,> 62.5 µM
same,GI50,CCRF-CEM leukemia,> 62.5 µM
same,TGI,CCRF-CEM leukemia,> 62.5 µM
same,GI50,COLO 205 colon,> 62.5 µM
same,TGI,COLO 205 colon,> 62.5 µM
same,GI50,DU-145 prostate,> 62.5 µM
same,TGI,DU-145 prostate,> 62.5 µM
same,GI50,HCC-2998 colon,> 62.5 µM
same,TGI,HCC-2998 colon,> 62.5 µM
same,GI50,HCT-116 colon,> 62.5 µM
same,TGI,HCT-116 colon,> 62.5 µM
same,GI50,HCT-15 colon,> 62.5 µM
same,TGI,HCT-15 colon,> 62.5 µM
same,GI50,HL-60(TB) leukemia,> 62.5 µM
same,TGI,HL-60(TB) leukemia,> 62.5 µM
same,GI50,HOP-62 NSCLC,> 62.5 µM
same,TGI,HOP-62 NSCLC,> 62.5 µM
same,GI50,HOP-92 NSCLC,> 62.5 µM
same,TGI,HOP-92 NSCLC,> 62.5 µM
same,GI50,HS 578T breast,> 62.5 µM
same,TGI,HS 578T breast,> 62.5 µM
same,GI50,HT29 colon,> 62.5 µM
same,TGI,HT29 colon,> 62.5 µM
same,GI50,IGROV1 ovarian,> 62.5 µM
same,TGI,IGROV1 ovarian,> 62.5 µM
same,GI50,K-562 leukemia,> 62.5 µM
same,TGI,K-562 leukemia,> 62.5 µM
same,GI50,KM12 colon,> 62.5 µM
same,TGI,KM12 colon,> 62.5 µM
same,GI50,LOX IMVI melanoma,> 62.5 µM
same,TGI,LOX IMVI melanoma,> 62.5 µM
same,GI50,M14 melanoma,> 62.5 µM
same,TGI,M14 melanoma,> 62.5 µM
same,GI50,MALME-3M melanoma,> 62.5 µM
same,TGI,MALME-3M melanoma,> 62.5 µM
same,GI50,MCF7 breast,> 62.5 µM
same,TGI,MCF7 breast,> 62.5 µM
same,GI50,MDA-MB-231 breast,> 62.5 µM
same,TGI,MDA-MB-231 breast,> 62.5 µM
same,GI50,MDA-MB-435,> 62.5 µM
same,TGI,MDA-MB-435,> 62.5 µM
same,GI50,MOLT-4 leukemia,> 62.5 µM
same,TGI,MOLT-4 leukemia,> 62.5 µM
same,GI50,NCI-H226 lung,> 62.5 µM
same,TGI,NCI-H226 lung,> 62.5 µM
same,GI50,NCI-H23 lung,> 62.5 µM
same,TGI,NCI-H23 lung,> 62.5 µM
same,GI50,NCI-H460 lung,> 62.5 µM
same,TGI,NCI-H460 lung,> 62.5 µM
same,GI50,NCI-H522 lung,> 62.5 µM
same,TGI,NCI-H522 lung,> 62.5 µM
same,GI50,NCI/ADR-RES ovarian,> 62.5 µM
same,TGI,NCI/ADR-RES ovarian,> 62.5 µM
same,GI50,OVCAR-3 ovarian,> 62.5 µM
same,TGI,OVCAR-3 ovarian,> 62.5 µM
same,GI50,OVCAR-4 ovarian,> 62.5 µM
same,TGI,OVCAR-4 ovarian,> 62.5 µM
same,GI50,OVCAR-5 ovarian,> 62.5 µM
same,TGI,OVCAR-5 ovarian,> 62.5 µM
same,GI50,OVCAR-8 ovarian,> 62.5 µM
same,TGI,OVCAR-8 ovarian,> 62.5 µM
same,GI50,PC-3 prostate,> 62.5 µM
same,TGI,PC-3 prostate,> 62.5 µM
same,GI50,RPMI-8226 leukemia,> 62.5 µM
same,TGI,RPMI-8226 leukemia,> 62.5 µM
same,GI50,RXF 393 renal,> 62.5 µM
same,TGI,RXF 393 renal,> 62.5 µM
same,GI50,SF-268 CNS,> 62.5 µM
same,TGI,SF-268 CNS,> 62.5 µM
same,GI50,SF-295 CNS,> 62.5 µM
same,TGI,SF-295 CNS,> 62.5 µM
same,GI50,SF-539 CNS,> 62.5 µM
same,TGI,SF-539 CNS,> 62.5 µM
same,GI50,SK-MEL-2 melanoma,> 62.5 µM
same,TGI,SK-MEL-2 melanoma,> 62.5 µM
same,GI50,SK-MEL-28 melanoma,> 62.5 µM
same,TGI,SK-MEL-28 melanoma,> 62.5 µM
same,GI50,SK-MEL-5 melanoma,> 62.5 µM
same,TGI,SK-MEL-5 melanoma,> 62.5 µM
same,GI50,SK-OV-3 ovarian,> 62.5 µM
same,TGI,SK-OV-3 ovarian,> 62.5 µM
same,GI50,SN12C renal,> 62.5 µM
same,TGI,SN12C renal,> 62.5 µM
same,GI50,SNB-19 CNS,> 62.5 µM
same,TGI,SNB-19 CNS,> 62.5 µM
same,GI50,SNB-75 CNS,> 62.5 µM
same,TGI,SNB-75 CNS,> 62.5 µM
same,GI50,SR leukemia,> 62.5 µM
same,TGI,SR leukemia,> 62.5 µM
same,GI50,SW-620 colon,> 62.5 µM
same,TGI,SW-620 colon,> 62.5 µM
same,GI50,T-47D breast,> 62.5 µM
same,TGI,T-47D breast,> 62.5 µM
same,GI50,TK-10 renal,> 62.5 µM
same,TGI,TK-10 renal,> 62.5 µM
same,GI50,U251 CNS,> 62.5 µM
same,TGI,U251 CNS,> 62.5 µM
same,GI50,UACC-257 melanoma,> 62.5 µM
same,TGI,UACC-257 melanoma,> 62.5 µM
same,GI50,UACC-62 melanoma,> 62.5 µM
same,TGI,UACC-62 melanoma,> 62.5 µM
same,GI50,UO-31 renal,> 62.5 µM
same,TGI,UO-31 renal,> 62.5 µM
